In US10582709B2, “Butyrolactones as herbicides” (FMC Corporation, priority 2015, dated 2020):

What was measured:
Assay type in all cases: in vivo
[1] = system: barnyardgrass (Echinochloa crus-galli); assay: Test B flooded paddy test, barnyardgrass; settings: 500 g ai/ha; applied to paddy water at 2-leaf stage; 13 to 15 d; scale 0 no effect to 100 complete control
Procedure, shortened: (§1)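 Ratings use a 0-100 visual scale, where 100 is complete control, and compare treated plants with controls after 13 to 15 d of greenhouse growth. Compound went straight into paddy water kept 3 cm over the soil surface, applied to seedlings at the 2-leaf stage.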

kochia (Kochia scoparia) [2] = assay: Test A preemergence, kochia; settings: visual rating after approx. 10 d, 0 to 100 scale, 0 no effect, 100 complete control
Procedure, shortened: (§2)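 Plants were grown in a blend of loam soil and sand and treated either at sowing by directed soil spray or postemergence at the one- to two-leaf stage. Test chemicals were in a non-phytotoxic solvent mixture with surfactant. Injury was visually rated after about 10 d on a 0–100 scale.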

kochia (Kochia scoparia) [3] = assay: Test A postemergence, kochia; settings: visual rating after approx. 10 d, 0 to 100 scale, 0 no effect, 100 complete control
Procedure, shortened: as §2

[4] = system: galium (catchweed bedstraw, Galium aparine); assay: Test A postemergence, galium; settings: visual rating after approx. 10 d, 0 to 100 scale, 0 no effect, 100 complete control
Procedure, shortened: as §2

[5] = system: barnyardgrass (Echinochloa crus-galli); assay: Test A postemergence, barnyardgrass; settings: visual rating after approx. 10 d, 0 to 100 scale, 0 no effect, 100 complete control
Procedure, shortened: as §2

[6] = system: pigweed (Amaranthus retroflexus); assay: Test A preemergence, pigweed; settings: visual rating after approx. 10 d, 0 to 100 scale, 0 no effect, 100 complete control
Procedure, shortened: as §2

[7] = system: foxtail, giant (giant foxtail, Setaria faberii); assay: Test A preemergence, giant foxtail; settings: visual rating after approx. 10 d, 0 to 100 scale, 0 no effect, 100 complete control
Procedure, shortened: as §2

[8] = system: ryegrass, Italian (Italian ryegrass, Lolium multiflorum); assay: Test A postemergence, Italian ryegrass; settings: visual rating after approx. 10 d, 0 to 100 scale, 0 no effect, 100 complete control
Procedure, shortened: as §2

[9] = system: foxtail, giant (giant foxtail, Setaria faberii); assay: Test A postemergence, giant foxtail; settings: visual rating after approx. 10 d, 0 to 100 scale, 0 no effect, 100 complete control
Procedure, shortened: as §2

corn (Zea mays) = assay: Test A postemergence, corn; settings: visual rating after approx. 10 d, 0 to 100 scale, 0 no effect, 100 complete control
Procedure, shortened: as §2

[10] = system: ducksalad (Heteranthera limosa); assay: Test B flooded paddy test, ducksalad; settings: 500 g ai/ha; applied to paddy water at 2-leaf stage; 13 to 15 d; scale 0 no effect to 100 complete control
Procedure, shortened: as §1

[11] = system: sedge, umbrella (small-flower umbrella sedge, Cyperus difformis); assay: Test B flooded paddy test, umbrella sedge; settings: 500 g ai/ha; applied to paddy water at 2-leaf stage; 13 to 15 d; scale 0 no effect to 100 complete control
Procedure, shortened: as §1

rice (Oryza sativa) = assay: Test B flooded paddy test, rice; settings: 500 g ai/ha; applied to paddy water at 2-leaf stage; 13 to 15 d; scale 0 no effect to 100 complete control
Procedure, shortened: as §1

[12] = system: ragweed (common ragweed, Ambrosia elatior); assay: Test A preemergence, ragweed; settings: visual rating after approx. 10 d, 0 to 100 scale, 0 no effect, 100 complete control
Procedure, shortened: as §2

[13] = system: ragweed (common ragweed, Ambrosia elatior); assay: Test A postemergence, ragweed; settings: visual rating after approx. 10 d, 0 to 100 scale, 0 no effect, 100 complete control
Procedure, shortened: as §2

[14] = system: barnyardgrass (Echinochloa crus-galli); assay: Test A preemergence, barnyardgrass; settings: visual rating after approx. 10 d, 0 to 100 scale, 0 no effect, 100 complete control
Procedure, shortened: as §2

[15] = system: pigweed (Amaranthus retroflexus); assay: Test A postemergence, pigweed; settings: visual rating after approx. 10 d, 0 to 100 scale, 0 no effect, 100 complete control
Procedure, shortened: as §2

[16] = system: ryegrass, Italian (Italian ryegrass, Lolium multiflorum); assay: Test A preemergence, Italian ryegrass; settings: visual rating after approx. 10 d, 0 to 100 scale, 0 no effect, 100 complete control
Procedure, shortened: as §2

[17] = system: blackgrass (Alopecurus myosuroides); assay: Test A postemergence, blackgrass; settings: visual rating after approx. 10 d, 0 to 100 scale, 0 no effect, 100 complete control
Procedure, shortened: as §2

[18] = system: wheat (Triticum aestivum); assay: Test A postemergence, wheat; settings: visual rating after approx. 10 d, 0 to 100 scale, 0 no effect, 100 complete control
Procedure, shortened: as §2

| Compound | Plant response rating, Flood, Barnyardgrass [1] | Plant response rating, Kochia (kochia (Kochia scoparia) [2]; 125 g ai/ha) | Plant response rating, Kochia (kochia (Kochia scoparia) [2]; 500 g ai/ha) | Plant response rating, Kochia (kochia (Kochia scoparia) [3]; 125 g ai/ha) | Plant response rating, Kochia (kochia (Kochia scoparia) [3]; 500 g ai/ha) | Plant response rating, Galium ([4]; 125 g ai/ha) | Plant response rating, Galium ([4]; 500 g ai/ha) | Plant response rating, Barnyardgrass ([5]; 125 g ai/ha) | Plant response rating, Barnyardgrass ([5]; 500 g ai/ha) | Plant response rating, Pigweed ([6]; 125 g ai/ha) | Plant response rating, Pigweed ([6]; 500 g ai/ha) | Plant response rating, Foxtail, Giant ([7]; 125 g ai/ha) | Plant response rating, Foxtail, Giant ([7]; 500 g ai/ha) | Plant response rating, Ryegrass, Italian ([8]; 125 g ai/ha) | Plant response rating, Ryegrass, Italian ([8]; 500 g ai/ha) | Plant response rating, Foxtail, Giant ([9]; 125 g ai/ha) | Plant response rating, Foxtail, Giant ([9]; 500 g ai/ha) | Plant response rating, Corn (corn (Zea mays); 125 g ai/ha) | Plant response rating, Corn (corn (Zea mays); 500 g ai/ha) | Plant response rating, Flood, Ducksalad [10] | further results |
| --- | --- | --- | --- | --- | --- | --- | --- | --- | --- | --- | --- | --- | --- | --- | --- | --- | --- | --- | --- | --- | --- |
| O=C(Nc1cccc(F)c1F)C1C(=O)OCC1c1ccc(F)c(C(F)(F)F)c1 (racemic) [Compound 15] | 0 | 0 | 0 | 0 | 0 | 0 | 20 | 30 | 70 | 0 | 0 | 70 | 90 | 0 | 20 | 30 | 70 | 0 | 20 | 0 | Plant response rating, Flood, Sedge, Umbrella [11]: 0; Plant response rating, Flood, Rice (rice (Oryza sativa)): 0; Plant response rating, Ragweed ([12]; 125 g ai/ha): 0; Plant response rating, Ragweed ([12]; 500 g ai/ha): 0; Plant response rating, Ragweed ([13]; 125 g ai/ha): 0; Plant response rating, Ragweed ([13]; 500 g ai/ha): 0; Plant response rating, Barnyardgrass ([14]; 125 g ai/ha): 40; Plant response rating, Barnyardgrass ([14]; 500 g ai/ha): 70; Plant response rating, Pigweed ([15]; 125 g ai/ha): 0; Plant response rating, Pigweed ([15]; 500 g ai/ha): 0; Plant response rating, Ryegrass, Italian ([16]; 125 g ai/ha): 0; Plant response rating, Ryegrass, Italian ([16]; 500 g ai/ha): 40; Plant response rating, Blackgrass ([17]; 125 g ai/ha): 0; Plant response rating, Blackgrass ([17]; 500 g ai/ha): 20; Plant response rating, Wheat ([18]; 125 g ai/ha): 0; Plant response rating, Wheat ([18]; 500 g ai/ha): 20 |
| O=C(Nc1ccccc1F)C1C(=O)OCC1c1ccc(F)c(C(F)(F)F)c1 (racemic) [Compound 16] | 0 | 0 | 0 | 0 | 0 | 0 | 0 | 20 | 50 | 0 | 0 | 50 | 80 | 0 | 0 | 20 | 40 | 0 | 0 | 0 | Plant response rating, Flood, Sedge, Umbrella [11]: 0; Plant response rating, Flood, Rice (rice (Oryza sativa)): 0; Plant response rating, Ragweed ([12]; 125 g ai/ha): 0; Plant response rating, Ragweed ([12]; 500 g ai/ha): 0; Plant response rating, Ragweed ([13]; 125 g ai/ha): 0; Plant response rating, Ragweed ([13]; 500 g ai/ha): 0; Plant response rating, Barnyardgrass ([14]; 125 g ai/ha): 30; Plant response rating, Barnyardgrass ([14]; 500 g ai/ha): 60; Plant response rating, Pigweed ([15]; 125 g ai/ha): 0; Plant response rating, Pigweed ([15]; 500 g ai/ha): 0; Plant response rating, Ryegrass, Italian ([16]; 125 g ai/ha): 0; Plant response rating, Ryegrass, Italian ([16]; 500 g ai/ha): 0; Plant response rating, Blackgrass ([17]; 125 g ai/ha): 0; Plant response rating, Blackgrass ([17]; 500 g ai/ha): 0; Plant response rating, Wheat ([18]; 125 g ai/ha): 0; Plant response rating, Wheat ([18]; 500 g ai/ha): 0 |
| O=C(Nc1ccccc1C(F)(F)F)C1C(=O)OCC1c1ccc(F)c(C(F)(F)F)c1 (racemic) [Compound 17] | 0 | 0 | 0 | 0 | 0 | 0 | 0 | 0 | 0 | 0 | 0 | 20 | 60 | 0 | 0 | 0 | 20 | 0 | 0 | 0 | Plant response rating, Flood, Sedge, Umbrella [11]: 0; Plant response rating, Flood, Rice (rice (Oryza sativa)): 0; Plant response rating, Ragweed ([12]; 125 g ai/ha): 0; Plant response rating, Ragweed ([12]; 500 g ai/ha): 0; Plant response rating, Ragweed ([13]; 125 g ai/ha): 0; Plant response rating, Ragweed ([13]; 500 g ai/ha): 0; Plant response rating, Barnyardgrass ([14]; 125 g ai/ha): 0; Plant response rating, Barnyardgrass ([14]; 500 g ai/ha): 0; Plant response rating, Pigweed ([15]; 125 g ai/ha): 0; Plant response rating, Pigweed ([15]; 500 g ai/ha): 0; Plant response rating, Ryegrass, Italian ([16]; 125 g ai/ha): 0; Plant response rating, Ryegrass, Italian ([16]; 500 g ai/ha): 0; Plant response rating, Blackgrass ([17]; 125 g ai/ha): 0; Plant response rating, Blackgrass ([17]; 500 g ai/ha): 0; Plant response rating, Wheat ([18]; 125 g ai/ha): 0; Plant response rating, Wheat ([18]; 500 g ai/ha): 0 |
| O=C(Nc1cccc(F)c1C(F)(F)F)C1C(=O)OCC1c1ccc(F)c(C(F)(F)F)c1 (racemic) [Compound 18] | 0 | 0 | 0 | 0 | 0 | 0 | 0 | 0 | 0 | 0 | 0 | 0 | 40 | 0 | 0 | 0 | 30 | 0 | 0 | 0 | Plant response rating, Flood, Sedge, Umbrella [11]: 0; Plant response rating, Flood, Rice (rice (Oryza sativa)): 0; Plant response rating, Ragweed ([12]; 125 g ai/ha): 0; Plant response rating, Ragweed ([12]; 500 g ai/ha): 0; Plant response rating, Ragweed ([13]; 125 g ai/ha): 0; Plant response rating, Ragweed ([13]; 500 g ai/ha): 0; Plant response rating, Barnyardgrass ([14]; 125 g ai/ha): 0; Plant response rating, Barnyardgrass ([14]; 500 g ai/ha): 0; Plant response rating, Pigweed ([15]; 125 g ai/ha): 0; Plant response rating, Pigweed ([15]; 500 g ai/ha): 0; Plant response rating, Ryegrass, Italian ([16]; 125 g ai/ha): 0; Plant response rating, Ryegrass, Italian ([16]; 500 g ai/ha): 0; Plant response rating, Blackgrass ([17]; 125 g ai/ha): 0; Plant response rating, Blackgrass ([17]; 500 g ai/ha): 0; Plant response rating, Wheat ([18]; 125 g ai/ha): 0; Plant response rating, Wheat ([18]; 500 g ai/ha): 0 |
